Legend:
human ABCB1 = target: T1, human ABCB1 (Homo sapiens, UniProt P08183); test: Transepithelial transport of EAI045, MDCK-II cells transduced with human ABCB1; format: in vitro ADME; details: for efflux ratio r (relative transport ratio): EAI045 5 μM
T1 construct: expressed in transfected cells; host or cells: MDCK-II cells, stably transduced, generated in the authors' institute
Method: Transport of EAI045 (5 μM) across epithelia was tested using cell layers of Madin–Darby Canine Kidney (MDCK-II) cells and derived clones expressing hABCB1, hABCG2, or mAbcg2 cDNA. […] In cells overexpressing hABCB1, there was clear transport of EAI045 in the apical direction (r = 5.5, Figure 1C). […] To evaluate the interaction between hABCG2 and mAbcg2 and EAI045, zosuquidar (5 μM) was added to inhibit any endogenous canine ABCB1. In cells overexpressing hABCG2, the BA transport of EAI045 was somewhat increased relative to the AB transport, resulting in an efflux ratio of 1.4 (Figure 1E).
Figure 1 In vitro transepithelial transport of EAI045 (5 μM) using MCDK-II parental cells (A,B) or transduced with human ABCB1 (C,D), human ABCG2 (E,F), or murine Abcg2 (G,H) cDNA. At t = 0 EAI045 was added in the donor compartment (either apical or basolateral). At 1, 2, and 4 h EAI045 was quantified in the acceptor compartment and the cumulative total transported amount per well was plotted (n = 3). Zosuquidar (5 μM) was added to inhibit the human and/or the endogenous ABCB1, while Ko143 (5 μM) was added to inhibit the human or murine ABCG2. r, relative transport ratio. […] Points, mean; bars, SD. TEXT PRINTED IN THE PICTURE: (A) no label printed: Parental: r = 1.7 | (B) no label printed: Parental + Zos.: r = 1.1 | (C) no label printed: hABCB1: r = 5.5 | (D) no label printed: hABCB1 + Zos.: r = 1.3 | (E) no label printed: hABCG2 + Zos.: r = 1.4 | (F) no label printed: hABCG2 + Zos. + Ko143: r = 1.1 | (G) no label printed: mAbcg2 + Zos.: r = 1.8 | (H) no label printed: mAbcg2 + Zos. + Ko143: r = 1.4
Madin–Darby Canine Kidney (MDCK-II) cells (ECACC 00062107) stably transduced with human (h) ABCB1, hABCG2, or mouse (m) Abcg2 cDNA were generated in our institute between 1998 and 2005. […] In short, cells were allowed to grow an intact monolayer in 3 days, which was monitored with transepithelial electrical resistance (TEER) measurements, both before and after the transport phase. […] Proper functionality of these cell lines was monitored by continual testing with a variety of drug substrates.

[1] = system: L858R/T790M EGFR mutant kinase; design: method as in PMID 27251290; details: cited from earlier work

T1 sequence (P08183 whole entry): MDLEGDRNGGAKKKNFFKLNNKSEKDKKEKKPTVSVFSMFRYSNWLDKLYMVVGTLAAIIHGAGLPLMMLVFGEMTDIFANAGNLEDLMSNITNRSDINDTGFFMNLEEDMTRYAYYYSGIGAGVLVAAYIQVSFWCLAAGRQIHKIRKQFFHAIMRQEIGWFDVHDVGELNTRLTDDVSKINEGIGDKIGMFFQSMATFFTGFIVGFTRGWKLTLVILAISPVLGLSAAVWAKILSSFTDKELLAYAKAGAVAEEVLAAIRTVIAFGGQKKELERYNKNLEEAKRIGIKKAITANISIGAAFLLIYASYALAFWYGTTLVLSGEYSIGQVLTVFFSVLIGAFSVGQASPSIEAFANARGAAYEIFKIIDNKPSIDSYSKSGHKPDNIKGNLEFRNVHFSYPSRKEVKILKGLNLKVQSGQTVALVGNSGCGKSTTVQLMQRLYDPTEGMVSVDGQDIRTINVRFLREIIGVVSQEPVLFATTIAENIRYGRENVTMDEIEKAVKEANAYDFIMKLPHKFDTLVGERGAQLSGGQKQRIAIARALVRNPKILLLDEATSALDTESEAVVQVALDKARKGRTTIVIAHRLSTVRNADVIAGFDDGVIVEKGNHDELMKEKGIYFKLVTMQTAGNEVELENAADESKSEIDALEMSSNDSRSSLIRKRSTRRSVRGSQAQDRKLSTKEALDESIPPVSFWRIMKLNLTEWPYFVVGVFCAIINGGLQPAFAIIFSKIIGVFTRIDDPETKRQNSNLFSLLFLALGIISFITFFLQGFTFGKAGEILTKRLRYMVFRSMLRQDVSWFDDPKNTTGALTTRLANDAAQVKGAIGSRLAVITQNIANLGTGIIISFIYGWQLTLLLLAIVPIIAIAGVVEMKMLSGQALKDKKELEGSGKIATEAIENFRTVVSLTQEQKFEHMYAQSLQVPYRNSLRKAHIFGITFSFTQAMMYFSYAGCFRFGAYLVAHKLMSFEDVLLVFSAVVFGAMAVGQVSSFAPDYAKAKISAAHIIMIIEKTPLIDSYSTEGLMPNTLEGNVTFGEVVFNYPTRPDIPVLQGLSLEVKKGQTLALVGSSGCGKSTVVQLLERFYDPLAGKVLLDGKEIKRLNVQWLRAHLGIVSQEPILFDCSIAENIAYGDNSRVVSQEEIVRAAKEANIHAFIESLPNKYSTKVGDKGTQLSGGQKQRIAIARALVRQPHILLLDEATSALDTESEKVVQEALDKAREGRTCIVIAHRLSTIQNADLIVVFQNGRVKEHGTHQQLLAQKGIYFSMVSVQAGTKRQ

efflux ratio r (relative transport ratio) (human ABCB1; hABCB1 + zosuquidar 5 μM): 1.3 | efflux ratio r (relative transport ratio) (human ABCB1; hABCB1, no inhibitor): 5.5 | transport substrate of hABCB1 (human ABCB1; in vitro): good transport substrate
Structure (SMILES): O=C(Nc1nccs1)C(c1cc(F)ccc1O)N1Cc2ccccc2C1=O (stereo not shown) [EAI045]
inhibition of the EGFR mutant relative to wild-type EGFR [1]: most selective inhibition

— publication PMC9505538, “P-Glycoprotein (MDR1/ABCB1) Restricts Brain Accumulation of the Novel EGFR Inhibitor EAI045 and Oral Elacridar Coadministration Enhances Its Brain Accumulation and Oral Exposure” (Pharmaceuticals, 2022)
